US10577322B2, “5-methoxytryptophan and its derivatives and uses thereof” (National Health Research Institutes, priority 2015, dated 2020)

How the values were obtained:
BALF total cell number = test: Cell number in bronchoalveolar lavage fluid (trypan blue exclusion); assay type: in vivo, mice; settings: 24 h after LPS
Procedure: Furthermore, bronchoalveolar lavage fluid (BALF) was isolated from mice treated with LPS with or without various concentrations of 5-MTP for 24 h. Cell number in BALF was determined by trypan blue exclusion assay.

LPS-induced endotoxemia = assay type: in vivo
Procedure: C57BL/6 mice (6-8 wks old) were treated intraperitoneally with saline or with different concentrations of 5-MTP (23.4 or 100 mg/kg) for 30 min before intraperitoneal administration of LPS (60 mg/kg). Animals were monitored for survival and other clinical signs including ruffled fur, lethargy, diarrhea, and body weight loss. Some animals were sacrificed at different times after LPS injection. Blood samples, peritoneal exudates, lungs, and spleens were collected. All mouse experiments were approved by the institutional Animal Care and Use Committee, National Health Research Institutes.
Since suppression of 5-MTP by endotoxemia could contribute to uncontrolled macrophage overproduction of proinflammatory cytokines and mediators, we determined whether exogenous 5-MTP administration rescues mice from LPS-induced systemic inflammation, organ damage and mortality. Mice were injected with saline, 5-MTP (23.4 mg/kg), 5-MTPE (25 mg/kg) or vehicle for 30 min, followed by LPS (60 mg/kg) (saline, n=25; 5-MTP, n=7; 5-MTPE, n=7; LPS, n=30; LPS+5-MTP, n=25; LPS+5-MTPE, n=25). Survival was monitored during the next 72 h. *P<0.001 compared to LPS treatment.

atherosclerotic lesions = test: Lipid accumulation and atherosclerotic lesions in ApoE-deficient mice on high fat diet; assay type: in vivo; settings: 23.5 mg/kg 3 times a week i.p., 8 weeks
Procedure: ApoE-deficient mice at 6 weeks were placed on a Western high fat diet containing 1.25% cholesterol and 21% fat (Research. Diets). The mice were simultaneously treated with vehicle (PBS), 5-MTP or 5-MTPE (23.4 mg/kg body weight, 3 times a week) by intraperitoneal injection. After 8 weeks, the aortic trees were dissected and lesions examined in the aortic arch and its branches. The aortas were carefully freed of connective and adipose tissue under a dissection microscope, opened longitudinally and stained with Oil red 0.
Since reduction of serum 5-MTP in CAD patients may be associated with the development of vascular disease, we determined whether exogenous 5-MTP derivatives exert protective effect in the development of atherosclerosis. ApoE-deficient mice were fed a Western high fat diet containing 1.25% cholesterol and 21% fat (Research Diets) starting at 6 weeks of age. The mice were simultaneously treated with vehicle (PBS), 5-MTP or 5-MTPE (23.5 mg/kg body weight, 3 times a week) by intraperitoneal injection. After 8 weeks, the aortic trees were dissected and lesions examined in the aortic arch and its branches.

caspase-3 = test: Cleaved caspase-3 immunohistochemistry in lung tissues; assay type: in vivo, mice; settings: LPS 60 mg/kg, 12 and 16 h
Procedure: Prior to immunohistochemical detection of COX-2, iNOS, Ly6g, or cleaved caspase-3 in lung sections, sections were deparaffinized with xylene, progressively rehydrated through graded alcohols. Antigen sites were retrieved by heating the sections on slides in pH 8 EDTA antigen. retrieval (Trilogy; Cell Marque Corporation) in electric pressure cooker for 15 min. […] All antibodies described hereafter were diluted in blocking buffer. Sections were incubated at room temperature for 2 h with primary antibody and then washed in PBST. The sections were incubated with primary antibody amplifier quanta (Thermo) for 10 minutes. After rinsing with PBST, the sections were incubated with HRP Polymer Quanto (Thermo) for 10 minutes and washed three times with PBST. COX-2, iNOS, Ly6g and cleaved caspase-3 were visualized by the addition of DAB Quanto Chromogen: Substrate for 3 minutes. Tissues were also counterstained with hematoxylin.
Paraffin-embedded sections were prepared from lung tissues of mice treated with saline or LPS (60 mg/kg) with or without various concentrations of 5-MTP for 12 or 16 h. Activated caspase-3 level in lung tissues was determined by immunohistochemical staining of cleaved caspase-3. The results are shown in FIG. 9A, in which scale bars represent 200 μm.

NF-κB p65 = test: Phospho-p65 level in lung tissues (ELISA kit); assay type: in vivo, mice; settings: 4 and 8 h after LPS, 5-MTP 23.4 mg/kg
Procedure: Since NF-κB activation plays a critical role in the initiation and progression of systemic inflammation and septic pathology, the effect of 5-MTP on NF-κB activation in lung tissue was evaluated. Phospho-p65 level in lung tissues was determined by an ELISA kit at 4 and 8 h after LPS infusion with or without 5-MTP (23.4 mg/kg) (n=6 mice/group).

chemokines = test: Serum chemokine level in LPS-injected mice (ELISA); assay type: in vivo; settings: 5-MTP 23.4 mg/kg, 24 h
Procedure: Furthermore, chemokine level was measured by ELISA in the serum of saline or LPS-injected mice with or without saline or 5-MTP (23.4 mg/kg) after 24 h (n=10). The results shown in FIG. 8C indicate that LPS-induced elevation of chemokines, CXCL1, MCP-1, RANTES and eotaxin in the serum was blunted by 5-MTP treatment at 24 h.

[1] = system: vascular smooth muscle cells; test: Calcifying medium-induced calcification in vascular smooth muscle cells; assay type: cell-based
Text: Vascular smooth muscle cell (VSMC) calcification is the major phenomenon to induce atherosclerotic vascular calcification in cardiovascular disease (CVD). We next investigated the effect of 5-MTP derivatives on VSMC calcification.

[2] = Serum 5-MTP level in mice after 5-MTP administration; assay type: in vivo; settings: 5-MTP 23.4 mg/kg
Procedure: To ensure that 5-MTP administration increases serum 5-MTP, we analyzed 5-MTP level at 24 h and 72 h after 5-MTP infusion. Serum 5-MTP concentrations in mice treated with saline or LPS with or without 5-MTP (23.4 mg/kg) at 24 h and 72 h. The error bars denote mean±SD (n=3).

[3] = 5-MTP 23.4 mg/kg 30 min before LPS 60 mg/kg

COc1ccc2[nH]cc(C[C@H](N)C(=O)O)c2c1 [5-MTP, 5-methoxytryptophan]
total cell number in BALF (BALF total cell number): reduced by 5-MTP in a dose-dependent manner
endotoxemic mice died at day 3 (LPS-induced endotoxemia; [3]): 20%
mice died at day 1 (LPS-induced endotoxemia; [3]): none
lipid accumulation in the arteries (atherosclerotic lesions; ApoE-deficient mice): less lipid accumulation
cleaved caspase-3 in lung tissues (caspase-3): reduced by 5-MTP
phosphorylation level of NF-κB p65 in lung tissues (NF-κB p65): reduced by 5-MTP
LPS-induced elevation of CXCL1 in serum (chemokines): blunted
LPS-induced elevation of MCP-1 in serum (chemokines): blunted
LPS-induced elevation of RANTES in serum (chemokines): blunted
LPS-induced elevation of eotaxin in serum (chemokines): blunted
calcifying medium-induced calcification [1]: reduced
serum 5-MTP level at 24 h after administration [2]: several-fold over the basal level
serum 5-MTP level at 72 h [2]: returned to basal level

COC(=O)C(N)Cc1c[nH]c2ccc(OC)cc12 (stereo not shown) [5-MTPE, ester-5-MTP]
protective capacity in LPS-induced lethal endotoxemia (LPS-induced endotoxemia; 5-MTPE 25 mg/kg 30 min before LPS 60 mg/kg, 72 h): 100%
lipid accumulation in atherosclerotic lesions (Oil red O) (atherosclerotic lesions): suppressed lipid accumulation
calcifying medium-induced calcification [1]: reduced
